11 compounds from US12371429B2, “Antibiotic resistance-modifying tricyclic heteroaryl compounds and uses thereof” (Recreo Pharmaceuticals LLC, priority 2018, dated 2025) can be followed below.

Values after ≈ are worked out from the molar mass of the structure shown. Like-named read-outs stand apart in the source and are kept apart here.

In assay [1] the test system is Staphylococcus aureus (MRSA, NRS384). As to the kind of experiment: MIC determination, broth microdilution. In kind it is cell-based. An excerpt: (§1) Bacterial strains representing pathogenic species of clinical concern, the so called ESKAPE pathogens, were selected for MIC studies using compounds A and B. The results are shown in Table A. These species are from the families or genera Enterococcus, Staphylococcus, Klebsiella, Acinetobacter, Pseudomonas, and Enterobacteriaceae. Specifically, Enterococcus faecium HM-204 and HM-460, Staphylococcus aureus strains NRS384 and COL, Klebsiella pneumoniae strains NR-48976 and NR-48977, Acinetobacter baumannii strains NR-17783 and NR-19299, Pseudomonas aeruginosa strain NR-48982 and Salmonella enterica strains NR-22067 and NR-22068 were purchased from BEI resources. Escherichia coli strain ATCC 25922, and the Staphylococcus aureus (S. aureus) strains ATCC 25923 (MSSA) and ATCC BAA-44 (MRSA) were purchased from the American Type Culture Collection (ATCC).
(§2) General Procedure for Minimal inhibitory concentration (MIC) determination. The minimal inhibitory concentrations (MICS) of antimicrobial compounds A, B, and C were determined by the broth microdilution method detailed in the Clinical and Laboratory Standards Institute handbook (Cockerill and Clinical and Laboratory Standards Institute, Methods for Dilution Antimicrobial Susceptibility Tests for Bacteria That Grow Aerobically). All antimicrobial compounds were purchased from Sigma-Aldrich. The growth media used for all MIC experiments, except those for Enterococcus faecium, was Mueller Hinton Broth (MHB) purchased from HIMEDIA through VWR (cat: 95039-356). For experiments using Enterococcus faecium, the growth and susceptibility medium was BD Bacto™ Brain Heart Infusion (BHI) Broth purchased from VWR (cat: 90003-040). USA Scientific CytoOne 96-well Clear Tissue Culture assay plates (cat: CC7682-7596) were used for all MIC and MRC experiments. MIC assay plates were prepared by diluting the antibiotic to be tested in a 2-fold series down the assay plate. A total of 8 concentrations of each compound were tested in triplicate. Compounds were prepared in 180 μL at 2× the intended final concentrations in MHB or BHI and 2% DMSO.
(§3) The bacterial inoculum was prepared by selecting 5-7 colonies from an agar plate to make a day culture in BHI of the bacterial species to be assayed. This was grown at 37° C. for 2-4 hours. After having reached the mid-logarithmic growth phase (OD600 0.15-0.4), the day culture was diluted in the appropriate assay medium (MHB or BHI) to OD600 0.002. 100 μL of this inoculum was added to each experimental well of the 96-well assay plate resulting in an additional two-fold dilution of the bacterial culture and an initial OD600 of 0.001 in the assay plate, a final volume of 200 μL and the intended compound concentrations in 1% DMSO. MIC assay plates were then incubated at 37° C. with shaking for 18 hours.
(§4) The MICs were determined as defined in the Clinical and Laboratory Standards Institute handbook. After overnight growth, Plates were read by eye and 600 nm absorbance read using a BioTek Epoch2 Microplate Spectrophotometer (BioTek).
A general note: In broth dilution the organism is exposed to a series of concentrations in liquid medium.

Assay [2] concerns MRSA strain BAA-44. Kind of assay: MIC determination, broth microdilution. It is filed as cell-based, Staphylococcus aureus.
Text: as §1, §2, §3, §4

For assay [3], the system named is MRSA strain BAA-44. Kind of assay: Antibiotic MICs in the presence of Compound C. In kind it is cell-based, Staphylococcus aureus. The following applies: MRSA BAA-44; in the presence of 5 mg/L Compound C. The protocol:
as §2, §3, §4
(§5) Determination of Antibiotic MICs in the Presence of Compound C against MRSA and MSSA. Methicillin-resistant S. aureus (MRSA) strain ATCC BAA-44 and the methicillin-sensitive S. aureus (MSSA) strain ATCC 25923 were used to determine the MIC values of various antimicrobial compounds in the presence of 5 μg/mL Compound C. […] The test antibiotics were then diluted into assay plates as described earlier. The final concentration of Compound C after inoculation with BAA-44 was 5 μg/mL. MIC values were determined by the methods described above.

In assay [4] the test system is MRSA strain NRS-384. As to the kind of experiment: Antibiotic MICs in the presence of Compound C. In kind it is cell-based, Staphylococcus aureus. As to conditions: MRSA NRS-384; in the presence of 5 mg/L Compound C. The protocol: [The source words this procedure for another variant and reports this variant under the same test.] as §2, §3, §4, §5
Assay [5] relates to MRSA strain ATCC 700789. As to the kind of experiment: MIC determination, broth microdilution. It is filed as cell-based, Staphylococcus aureus. The following applies: MRSA strain ATCC 700789 (Table C). The protocol: as §2, with “Compounds were prepared in 180 μL at 2× the intended final concentrations in MHB or BHI and 2% DMSO.” left out
as §4

The subject of assay [6] is MRSA strain ATCC-33592. Kind of assay: MIC determination, broth microdilution. It is filed as cell-based, Staphylococcus aureus. As to conditions: MRSA strain ATCC-33592 (Table C). The protocol:
as §2, with “Compounds were prepared in 180 μL at 2× the intended final concentrations in MHB or BHI and 2% DMSO.” left out
as §4

Assay [7] relates to MRSA strain ATCC 700789. Kind of assay: Minimal re-sensitizing concentration (MRC) determination. It is filed as cell-based, Staphylococcus aureus. The protocol: (§6) Minimal re-sensitizing concentration (MRC) determination. Antibiotic MIC breakpoint values where S. aureus is considered susceptible were determined from the CLSI handbook supplement. MHB was supplemented with the antibiotic at a concentration two-fold greater than the CLSI susceptible MIC value. Two-fold serial dilutions of Compound C were prepared in antibiotic supplemented media in 96-well microplates. These were inoculated with MRSA diluted to OD600 0.002 and incubated at 37° C. with shaking for 18 hours before results were interpreted. The concentration of […] in antibiotic supplemented media at which there was no observable growth was considered the minimum re-sensitizing concentration (MRC).

The subject of assay [8] is MRSA strain ATCC-33592. Described as above. It is filed as cell-based, Staphylococcus aureus. The protocol:
as §6

Assay [9] deals with MRSA strain BAA-44. The description is as above. It is filed as cell-based, Staphylococcus aureus. The protocol: as §6
The test system of assay [10] is MRSA strain NRS-384. The description is as above. It is filed as cell-based, Staphylococcus aureus. The protocol:
as §6

Where [11] appears, read: Staphylococcus aureus, MRSA NRS-384, in the absence of Compound C, read-out: MIC mg/L (NRS-384).
Where [12] appears, read: Staphylococcus aureus, MRSA BAA-44, in the absence of Compound C, read-out: MIC mg/L (BAA-44).
[13] abbreviates: medium supplemented with amox/clav.
Setting [14] is: medium supplemented with cefazolin.

`Cc1nnc(SCC2=C(C(=O)O)N3C(=O)[C@@H](NC(=O)Cn4cnnn4)[C@H]3SC2)s1` [Cefazolin, reference compound]: the MIC turned out to be 64 mg/L (≈ 141 µM) in assay [1] (setting [11]) and 128 mg/L (≈ 282 µM) in assay [2] (setting [12]). The “MIC (BAA-44) (+5 mg/L Compound C)” value in [3] was under 2 µg/mL. Also, the “MIC (NRS-384) (+5 mg/L Compound C)” value in assay [4] was under 2 µg/mL.

As for `CCC[C@@H]1C[C@@H](C(=O)N[C@@H]([C@H]2O[C@H](SC)[C@H](O)[C@@H](O)[C@H]2O)[C@H](C)Cl)N(C)C1` [Clindamycin], the MIC is 0.125 mg/L (≈ 0.294 µM) in assay [1] (setting [11]) and over 4 mg/L in assay [2] (setting [12]). Besides, the “MIC (BAA-44) (+5 mg/L Compound C)” value in assay [3] was over 4 µg/mL. Moreover, in assay [4], the “MIC (NRS-384) (+5 mg/L Compound C)” value is under 0.03125 µg/mL.

In the case of `O=C(c1ccc(Cl)cc1)N1CCc2c([nH]c3ccc(Cl)cc23)C1` [Compound C], the MIC in [1] (MRSA strain NRS-384 (Table C)) was over 64 mg/L; in [1] (setting [11]), over 100 mg/L; in assay [2] (MRSA strain BAA-44 (Table C)), 64 mg/L (≈ 185 µM); in assay [2] (setting [12]) it was over 100 mg/L; in [5], over 64 µg/mL; in [6], 4 µg/mL (≈ 11.6 µM). Moreover, the “MRC to Amox/clav” value in assay [7] (setting [13]) worked out at 4; in [8] (setting [13]) it was 2; in assay [9] (medium supplemented with amox/clav at two-fold greater than the CLSI susceptible MIC), 4; in [10] (setting [13]), 2. The “MRC to Cefazolin” value in [7] (setting [14]) is 4; in [8] (setting [14]), 2; in assay [9] (medium supplemented with cefazolin at two-fold greater than the CLSI susceptible MIC), 4; in assay [10] (setting [14]), 4.

For the compound `CC(=O)NC[C@H]1CN(c2ccc(N3CCOCC3)c(F)c2)C(=O)O1` [Linezolid], the MIC in assay [1] (setting [11]) was found to be 2 mg/L (≈ 5.93 µM); in assay [2] (setting [12]) it was 1 mg/L (≈ 2.96 µM). In [3], the “MIC (BAA-44) (+5 mg/L Compound C)” value turned out to be 0.5 µg/mL. For the same compound, the “MIC (NRS-384) (+5 mg/L Compound C)” value in [4] stood at 1 µg/mL.

As to `C[C@@H](O)[C@H]1C(=O)N2C(C(=O)O)=C(S[C@@H]3CN[C@H](C(=O)N(C)C)C3)[C@H](C)[C@H]12` [Meropenem, reference compound], the MIC in [1] (setting [11]) turned out to be 8 mg/L (≈ 20.9 µM); in assay [2] (setting [12]) it was 16 mg/L (≈ 41.7 µM). Further, in assay [3], the “MIC (BAA-44) (+5 mg/L Compound C)” value is under 0.25 µg/mL. Further, in assay [4], the “MIC (NRS-384) (+5 mg/L Compound C)” value is under 0.25 µg/mL.

`COc1cccc(OC)c1C(=O)N[C@@H]1C(=O)N2[C@@H]1SC(C)(C)[C@@H]2C(=O)O` [Methicillin, reference compound]: the results for the MIC in assay [1] (setting [11]) and in assay [2] (setting [12]) were 256 mg/L (≈ 673 µM) and over 256 mg/L, respectively. Also, the “MIC (BAA-44) (+5 mg/L Compound C)” value in assay [3] was 4 µg/mL. Further, the “MIC (NRS-384) (+5 mg/L Compound C)” value in assay [4] came to 8 µg/mL.

Turning to `Cc1onc(-c2ccccc2)c1C(=O)N[C@@H]1C(=O)N2[C@@H]1SC(C)(C)[C@@H]2C(=O)O` [Oxacillin, reference compound], the MIC in assay [1] (setting [11]) and in [2] (setting [12]) was 64 mg/L (≈ 159 µM) in each case. For the same compound, the “MIC (BAA-44) (+5 mg/L Compound C)” value in assay [3] is under 2 µg/mL. Further, the “MIC (NRS-384) (+5 mg/L Compound C)” value in [4] was under 2 µg/mL.

For `CO[C@H]1/C=C/O[C@@]2(C)Oc3c(C)c(O)c4c(O)c(c(/C=N/N5CCN(C)CC5)c(O)c4c3C2=O)NC(=O)/C(C)=C\C=C\[C@H](C)[C@H](O)[C@@H](C)[C@@H](O)[C@@H](C)[C@H](OC(C)=O)[C@@H]1C` [Rifampicin], the figures for the MIC in assay [1] (setting [11]) and in [2] (setting [12]) were under 0.0312 mg/L and 1 mg/L (≈ 1.22 µM), respectively. Also, the “MIC (NRS-384) (+5 mg/L Compound C)” value in assay [4] was under 0.03125 µg/mL.

Turning to `[H]/N=C(/N)N[C@H]1[C@H](O)[C@@H](O)[C@H](O[C@@H]2O[C@@H](C)[C@](O)(C=O)[C@H]2O[C@@H]2O[C@@H](CO)[C@H](O)[C@@H](O)[C@@H]2NC)[C@@H](N/C(N)=N\[H])[C@@H]1O` [Streptomycin], the MIC in assay [1] (setting [11]) was 8 mg/L (≈ 13.8 µM); in assay [2] (setting [12]), over 32 mg/L. For the same compound, the “MIC (BAA-44) (+5 mg/L Compound C)” value in [3] is over 32 µg/mL. Besides, in [4], the “MIC (NRS-384) (+5 mg/L Compound C)” value is 1 µg/mL.

As for `CN(C)[C@@H]1C(O)=C(C(N)=O)C(=O)[C@@]2(O)C(O)=C3C(=O)c4c(O)cccc4[C@@](C)(O)[C@H]3C[C@@H]12` [Tetracycline], the MIC is 8 mg/L (≈ 18 µM) in [1] (setting [11]) and 16 mg/L (≈ 36 µM) in assay [2] (setting [12]). For the same compound, the “MIC (BAA-44) (+5 mg/L Compound C)” value in [3] was 4 µg/mL. Moreover, the “MIC (NRS-384) (+5 mg/L Compound C)” value in assay [4] was 4 µg/mL.

Take `CN[C@H](CC(C)C)C(=O)N[C@H]1C(=O)N[C@@H](CC(N)=O)C(=O)N[C@H]2C(=O)N[C@H]3C(=O)N[C@H](C(=O)N[C@H](C(=O)O)c4cc(O)cc(O)c4-c4cc3ccc4O)[C@H](O)c3ccc(c(Cl)c3)Oc3cc2cc(c3O[C@@H]2O[C@H](CO)[C@@H](O)[C@H](O)[C@H]2O[C@H]2C[C@](C)(N)[C@H](O)[C@H](C)O2)Oc2ccc(cc2Cl)[C@H]1O` [Vancomycin]: the MIC in assay [1] (Staphylococcus aureus, read-out: MIC mg/L (NRS-384)) amounted to 1 mg/L (≈ 0.69 µM); in assay [2] (Staphylococcus aureus, read-out: MIC mg/L (BAA-44)), 1 mg/L (≈ 0.69 µM). Besides, in [3], the “MIC (BAA-44) (+5 mg/L Compound C)” value is 0.5 µg/mL. In [4], the “MIC (NRS-384) (+5 mg/L Compound C)” value stood at 0.5 µg/mL.
